Reference: ChEMBL document CHEMBL1201862, “PubChem BioAssay data set” (2004)
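Briefly, cells in 96-well plates were exposed to five compound concentrations for 48 h, and endpoints were estimated by linear interpolation. GI50 is the concentration that inhibits growth by half.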 Activity calls are given as the source filed them. Cut-off read from the data, not from the text of the source: active = GI50 up to about 1.1 µM and inactive = higher.

Legend:
Assay in all cases: NCI anticancer screen, dose series, 48 h
OVCAR-3 = system: OVCAR-3
HCT-15 = system: HCT-15
A498 = system: A498
SK-MEL-28 = system: SK-MEL-28
RPMI-8226 = system: RPMI-8226
SN12C = system: SN12C
SF-295 = system: SF-295
SK-MEL-5 = system: SK-MEL-5
MOLT-4 = system: MOLT-4
SNB-75 = system: SNB-75
UO-31 = system: UO-31
SNB-19 = system: SNB-19
SW-620 = system: SW-620
HCT-116 = system: HCT-116
TK-10 = system: TK-10
HT-29 = system: HT-29
K562 = system: K562
IGROV-1 = system: IGROV-1
HOP-92 = system: HOP-92

SMILES	GI50 (OVCAR-3)	GI50 (HCT-15)	GI50 (A498)	GI50 (SK-MEL-28)	GI50 (RPMI-8226)	GI50 (SN12C)	GI50 (SF-295)	GI50 (SK-MEL-5)	GI50 (MOLT-4)	GI50 (SNB-75)	GI50 (UO-31)	GI50 (SNB-19)	GI50 (SW-620)	GI50 (HCT-116)	GI50 (TK-10)	GI50 (HT-29)	GI50 (K562)	GI50 (IGROV-1)	GI50 (HOP-92)
CN(C)c1ccc(/C=C/C=C\c2cc(/C=C/C=C/c3ccc(N(C)C)cc3)[s+]c3ccccc23)cc1.[O-][Cl+3]([O-])([O-])[O-]	31.8 µM (inactive)	80.7 µM	> 100 µM (inactive)	14.2 µM (inactive)	55.3 µM (inactive)	> 100 µM (inactive)	> 100 µM (inactive)	43.8 µM (inactive)	> 100 µM (inactive)	> 100 µM (inactive)	> 100 µM (inactive)	> 100 µM (inactive)	63.4 µM (inactive)	78.5 µM (inactive)	> 100 µM (inactive)	> 100 µM (inactive)	> 100 µM (inactive)	–	–
O=C(CC(=O)N1N=C(c2ccccc2)C(/N=N/c2ccc(Cl)cc2)C1=O)Nc1ccccc1Cl (stereo unspecified)	24.3 µM (inactive)	51.2 µM	> 10 µM (inactive)	20.6 µM (inactive)	27.6 µM (inactive)	92 µM (inactive)	–	18.1 µM (inactive)	33 µM (inactive)	16.4 µM (inactive)	22 µM (inactive)	21.2 µM (inactive)	40.7 µM (inactive)	23.6 µM (inactive)	16.6 µM (inactive)	37.4 µM (inactive)	36.7 µM (inactive)	36.4 µM (inactive)	–
CCC1CCc2c(c(=O)oc3c2cc(OC)c2cccc(OC)c23)C1 (stereo unspecified)	–	> 100 µM	> 100 µM (inactive)	> 100 µM (inactive)	49.5 µM (inactive)	> 100 µM (inactive)	32.6 µM (inactive)	34.8 µM (inactive)	23.2 µM (inactive)	55.8 µM (inactive)	> 100 µM (inactive)	> 100 µM (inactive)	–	33.4 µM (inactive)	> 100 µM (inactive)	33.4 µM (inactive)	40.9 µM (inactive)	> 100 µM (inactive)	–
CCCO/N=[N+](\[O-])N(CC)CC	> 100 µM (inactive)	> 100 µM	> 100 µM (inactive)	> 100 µM (inactive)	–	> 100 µM (inactive)	> 100 µM (inactive)	> 100 µM (inactive)	> 100 µM (inactive)	–	> 100 µM (inactive)	> 100 µM (inactive)	> 100 µM (inactive)	> 100 µM (inactive)	> 100 µM (inactive)	> 100 µM (inactive)	> 100 µM (inactive)	> 100 µM (inactive)	> 100 µM (inactive)
COC(=O)C1CCc2c(OC)ccc(OC)c2C1=O (stereo unspecified)	> 100 µM (inactive)	–	> 100 µM (inactive)	> 100 µM (inactive)	> 100 µM (inactive)	–	> 100 µM (inactive)	> 100 µM (inactive)	> 100 µM (inactive)	–	> 100 µM (inactive)	> 100 µM (inactive)	> 100 µM (inactive)	> 100 µM (inactive)	> 100 µM (inactive)	> 100 µM (inactive)	> 100 µM (inactive)	> 100 µM (inactive)	> 100 µM (inactive)
CC1=NN(C(=O)c2ccc(Cl)cc2)C(=O)/C1=C/c1ccccc1O	> 100 µM (inactive)	> 100 µM	> 100 µM (inactive)	> 100 µM (inactive)	> 100 µM (inactive)	> 100 µM (inactive)	> 100 µM (inactive)	> 100 µM (inactive)	> 100 µM (inactive)	–	> 100 µM (inactive)	> 100 µM (inactive)	> 100 µM (inactive)	> 100 µM (inactive)	> 100 µM (inactive)	> 100 µM (inactive)	> 100 µM (inactive)	> 100 µM (inactive)	> 100 µM (inactive)
